From patent publication US20250051355A1, “COMPOUNDS, COMPOSITIONS, AND METHODS” (ACONCAGUA BIO, INC., priority 2023, published 2025) come the findings set out here.

Experiment [1] concerns the target human calcitonin receptor (CTR) and RAMP3 (AMY3) (Homo sapiens, UniProt O60896+P30988). The experiment in a line: Amylin Receptor cAMP Assay II. Format: cell-based. The conditions noted are these: COS-7/AMY3 cells, cAMP dynamic 2 kit, read-out: Amylin Receptor cAMP Stimulation Activity: EC50. From the text: Amylin Receptor cAMPAssay II
AMYRs are heterodimers of the class B calcitonin (CT) G-protein-coupled receptor (CTR) and receptor activity-modifying proteins (RAMPs). All three RAMPs can interact with the CTR and form AMY1, AMY2, AMY3 with RAMP1, RAMP2 and RAMP3, respectively. Like other class B1 GPCRs, the CT receptor family is canonically coupled to Gs-mediated cAMP production, and measurement of cAMP accumulation has been the primary assay used to determine peptide selectivity and potency.
(§1) To optimize functional activity directed toward Gas coupling, COS-7 cells were stably transfected with human calcitonin receptor (CTR) and RAMP3, simultaneously. 100×concentration of compound working solutions were prepared with 4-fold serial dilution in 384-well Echo LDV plate (Labcyte, Cat #LP-0200-BC). 200 nL/well 100×concentration of compound working solutions were moved to 384-well white microplate (Perkin Elmer, Cat #6007680) using Labcyte ECHO550. […] cells/mL COS-7/AMY3 cell suspensions prepared with assay buffer [HBSS containing 20 mM HEPES (Gibco, Cat #15630-080), 0.5 mM IBMX (Sigma, Cat #15879) and 0.1% Casein (Sigma, Cat #C4765)], 20 μL cell suspensions were added to each well of previous generated assay plate which already contains 200 nL compound at 100×concentration using ThermoFisher Multidrop Combi (2000 cells/well). Seal the plate and incubate at 37° C. with 5% CO2 for 30 min.
After incubation, the cAMP assay signal was generated using cAMP dynamic 2 kit (Revvity, Cat #62AM4PEC). 10 μL cAMP-d2 working solution was added to each well, followed by 10 μL Anti-cAMP antibody-cryptate working solution which was added to each well using CERTUS FLEX LIQUID DISPENSER The samples were then incubated at room temperature for 1 hour protected from light. the fluorescence was read at 665 and 615 nm with Reader PerkinElmer EnVision 2105.

The target of experiment [2] is T1, human calcitonin receptor (CTR) (Homo sapiens, UniProt P30988).
T1 construct: expressed in transfected cells; host or cells: COS-7 (COS7-human CTR Clone #2)
T1 sequence (P30988 25-474): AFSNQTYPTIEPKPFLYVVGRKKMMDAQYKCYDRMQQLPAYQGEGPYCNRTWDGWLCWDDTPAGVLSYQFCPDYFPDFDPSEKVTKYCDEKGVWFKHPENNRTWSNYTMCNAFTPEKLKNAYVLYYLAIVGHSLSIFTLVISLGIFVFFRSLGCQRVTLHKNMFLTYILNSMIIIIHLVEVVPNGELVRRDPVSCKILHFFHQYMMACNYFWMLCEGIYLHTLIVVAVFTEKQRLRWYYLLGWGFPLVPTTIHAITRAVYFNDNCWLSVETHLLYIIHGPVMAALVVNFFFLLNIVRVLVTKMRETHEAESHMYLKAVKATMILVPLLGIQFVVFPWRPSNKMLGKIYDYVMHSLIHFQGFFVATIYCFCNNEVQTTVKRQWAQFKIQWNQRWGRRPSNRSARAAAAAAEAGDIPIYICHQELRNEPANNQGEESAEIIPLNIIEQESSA
The experiment in a line: Calcitonin receptor (CTR) cAMP Assay. Format: cell-based. The conditions noted are these: COS7-human CTR Clone #2 cells, cAMP dynamic 2 kit; read-out: Calcitonin Receptor cAMP Stimulation Activity: EC50.
Excerpt: Calcitonin receptor (CTR) cAMPAssay
The calcitonin receptor (CTR) belongs to the subfamily of GPCRs known as the secretin or ‘B’ family of GPCRs. Like other class B1 GPCRs, the CT receptor family is canonically coupled to Gs-mediated cAMP production, and measurement of cAMP accumulation has been the primary assay used to determine peptide selectivity and potency.
as §1, with “to create COS7-human CTR Clone #2 stable cell line. 100× concentration” for “and RAMP3, simultaneously. 100×concentration”, “COS7-human CTR Clone #2” for “COS-7/AMY3”
After incubation, the cAMP assay signal was generated using cAMP dynamic 2 kit (Revvity, Cat #62AM4PEC). […] cAMP-d2 working solution was added to each well, followed by 10 μL Anti-cAMP antibody-cryptate working solution which was added to each well using CERTUS FLEX LIQUID DISPENSER The samples were then incubated at room temperature for 1 hour protected from light. the fluorescence was read at 665 and 615 nm with Reader PerkinElmer EnVision 2105.

Chain of human calcitonin receptor (CTR) and RAMP3 (AMY3) (O60896 24-148, one chain of several): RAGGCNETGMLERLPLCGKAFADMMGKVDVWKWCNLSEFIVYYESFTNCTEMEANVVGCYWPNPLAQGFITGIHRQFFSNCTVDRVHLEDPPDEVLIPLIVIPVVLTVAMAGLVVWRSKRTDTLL

On to `CC(C)C1CS(=O)(=O)c2c1nc(CCC1CCOCC1)c(-c1nnc(CN(C)C)o1)c2-c1cc2ccnc(N[C@@H]3CCc4ncccc43)c2s1` (stereo partly drawn) [Compound 117, 7-(7-[(R)-4-aza-1-indanylamino]-1-thia-6-aza-2-indenyl}-6-(5-[(dimethylamino)methyl]-1,3,4-oxadiazol-2-yl}-3-isopropyl-5-[2-(tetrahydro-2H-pyran-4-yl)ethyl]-1λ^8-thia-4-aza-1,1-indandione], for which the EC50 in experiment [1] is 257 nM; in experiment [2], 9.93 nM.

As to `Cc1cc(-c2c(CCC3CCOCC3)nc3c(c2-c2ccc4c(c2)oc(=O)n4Cc2ncc(Cl)cc2F)C(=O)N2CCC[C@@]32C)ccn1` [Compound 148, 6-((2S)-2-methyl-10-(2-methyl-4-pyridyl)-7-oxo-11-[2-(tetrahydro-2H-pyran-4-yl)ethyl]-6,12-diazatricyclo[6.4.0.0,^1I]dodeca-1(12),8,10-trien-9-yl}-3-[(5-chloro-3-fluoro-2-pyridyl)methyl]-1,3-benzoxazol-2(3H)-one], the concentration for a half-maximal effect (EC50) amounted to 839 nM in experiment [1] and 65.1 nM in experiment [2].

Regarding `Cc1nnc(-c2c(CCC3CCOCC3)nc3c(c2-c2ccc4c(ccn4C(C)c4ccc(C#N)c(F)c4)c2)C(=O)N2CCOC[C@@H]32)o1` (stereo partly drawn) [Compound 110, 4-[1-(5-((4aR)-7-(5-methyl-1,3,4-oxadiazol-2-yl)-9-oxo-6-[2-(tetrahydro-2H-pyran-4-yl)ethyl]-1,2,4,4a-tetrahydro-9H-3-oxa-5,9a-diazafluoren-8-yl}-1-indolyl)ethyl]-2-fluorobenzonitrile], the EC50 stood at 62.4 nM in experiment [1] and 6.16 nM in experiment [2].

As for `COc1cccc2c1CC[C@H]2Nc1nccc2cc(-c3c4c(nc(CCc5ccc(F)cc5)c3-c3nnc(N)o3)[C@@H]3CCCN3C4=O)sc12` [Compound 86, (2S)-9-(7-[(R)-4-methoxy-1-indanylamino]-1-thia-6-aza-2-indenyl}-10-(5-amino-1,3,4-oxadiazol-2-yl)-11-[2-(p-fluorophenyl)ethyl]-6,12-diazatricyclo[6.4.0.0^2,^6]dodeca-1(8),9,11-trien-7-one], the EC50 in experiment [1] was determined as 9.66 nM; in experiment [2] it was 0.398 nM.

Consider `Cc1nnc(-c2c(CCC3CCOCC3)nc3c(c2-c2ccc4c(cnn4Cc4ccc(C#N)c(F)c4)c2)C(=O)N2CCOC[C@@H]32)o1` [Compound 105, 4-[(5-((4aR)-7-(5-methyl-1,3,4-oxadiazol-2-yl)-9-oxo-6-[2-(tetrahydro-2H-pyran-4-yl)ethyl]-1,2,4,4a-tetrahydro-9H-3-oxa-5,9a-diazafluoren-8-yl}-1H-indazol-1-yl)methyl]-2-fluorobenzonitrile], for which the EC50 is 385 nM in experiment [1] and 9.56 nM in experiment [2].

With `Cc1cc(-c2c(CCC3CCOCC3)nc3c(c2-c2cc4ccnc(N[C@@H]5CCc6ncccc65)c4s2)S(=O)(=O)CC3C(C)C)ncn1` (stereo partly drawn) [Compound 92, N—(R)-4-aza-1-indanyl(2-(3-isopropyl-6-(6-methyl-4-pyrimidinyl)-1,1-dioxo-5-[2-(tetrahydro-2H-pyran-4-yl)ethyl]-1λ^6-thia-4-aza-7-indanyl}-1-thia-6-aza-7-indenyl)amine], the EC50 in experiment [1] came out at 540 nM; in experiment [2], 117 nM.

For the compound `COc1cccc2c1CC[C@H]2Nc1nccc2cc(-c3c4c(nc(CCc5ccc(F)cc5)c3-c3nnc[nH]3)[C@@H]3CCCN3C4=O)sc12` [Compound 85, (S)-2-(4-fluorophenethyl)-4-(7-(((R)-4-methoxy-2,3-dihydro-1H-inden-1-yl)amino)thieno[2,3-c]pyridin-2-yl)-3-(4H-1,2,4-triazol-3-yl)-7,8,9,9a-tetrahydro-5H-pyrido[2,3-a]pyrrolizin-5-one], the EC50 in experiment [1] worked out at 13 nM; in experiment [2] it was 0.676 nM.

For `Cc1nnc(-c2c(CCC3CCOCC3)nc3c(c2-c2ccc4nn(Cc5ccc(C#N)c(F)c5)cc4c2)C(=O)N2CCOC[C@@H]32)o1` [Compound 130, 4-[(5-((4aR,9aR)-7-(5-methyl-1,3,4-oxadiazol-2-yl)-9-oxo-6-[2-(tetrahydro-2H-pyran-4-yl)ethyl]-1,2,4,4a-tetrahydro-9H-3-oxa-5,9a-diazafluoren-8-yl}-2H-indazol-2-yl)methyl]-2-fluorobenzonitrile], the EC50 in experiment [1] was found to be 2310 nM; in experiment [2] it was 186 nM.

As usually defined, the EC50 is the concentration that produces a half-maximal response.
